The data set deals with human dermal fibroblast cells (Invitrogen C-013-5C). Description: Cell vitality of human dermal fibroblast cells after 24 h incubation. In kind it is cell-based. The method, then:
The human dermal fibroblast cells, (Invitrogen C-013-5C) were cultured in humid conditions comprising 37±0.5° C. and 5% CO2 according to the instructions of the producer. […] Oxidative stress parameters such as total glutation, malondialdehyde, and superoxide dismutase and glutation peroxidase have been examined inside the cells that have been analyzed.

Consider `Oc1ccc(C=Cc2cc(O)cc(O)c2)cc1` [Resveratrol solution, resveratrol], for which the “cytotoxic potential (cell vitality)” value is on record as “not to have cytotoxic potential”. Besides, under “concentrations corresponding to 50 μM resveratrol content”, the cell proliferation effect entry is recorded as “cell proliferation increasing effects”.
